As a reminder, the Ki is the dissociation constant of the complex between target and ligand, obtained from inhibition or displacement. High values mean weaker binding, low ones tighter binding. The term half-life denotes the time needed for the level to fall by half in the phase considered.

One data set addresses T1, trypsin (Bos taurus, UniProt P00760).
T1 sequence (P00760 24-246): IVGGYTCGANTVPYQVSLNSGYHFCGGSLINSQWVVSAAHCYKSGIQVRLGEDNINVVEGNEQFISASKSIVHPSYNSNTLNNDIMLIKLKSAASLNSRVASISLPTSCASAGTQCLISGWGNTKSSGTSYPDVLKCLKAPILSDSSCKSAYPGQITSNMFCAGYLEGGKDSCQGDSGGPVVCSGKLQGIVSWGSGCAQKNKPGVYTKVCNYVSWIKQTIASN
In words: Ki with respect to trypsin (specificity of the inhibitors). It counts as biochemical. As for the experimental part:
(§1) The inhibitors according to the invention have been tested according to various criteria to assess their efficacy, these preferably being the determination of the Ki value, of the IC50 value and of the partial thrombo-plastin time (PTT) in vivo and in vitro. To test the specificity, the IC50 values and Ki values with respect to various serine proteases, especially thrombin and trypsin, were measured. The stability of the substances according to the invention was determined by incubating a sample of the substance with a pure enzyme, preferably trypsin, chymotrypsin or papain, and with liver or intestinal homogenates, taking samples from the solutions at intervals of time, and preferably measuring by HPLC.
The specificity of the inhibitors was determined with thrombin and trypsin. The specificity is defined as the ratio of the Ki values for trypsin and thrombin (table).

A short description of data set [1]: Determination of the elimination half-lives t1/2 β, intravenous, rats. It counts as in vivo. The note with it: rat, i.v., 5 mg/kg, plasma, calculated, second phase. The protocol:
Determination of the Elimination Half-lives t1/2 β The thrombin inhibitors (2)-(5) in the table were administered intravenously to rats (5 in each group) at a dosage of 5 mg/kg. Blood samples were taken, and the time-dependent concentrations of thrombin inhibitors in the plasma were determined. Elimination takes place in two phases. The calculated elimination half-lives t1/2 β are compiled in it.

Data set [2] is described as follows: Determination of the subcutaneous absorption of substances (2) and (5), rabbits. The following applies: 2 mg/kg. It counts as in vivo. As for the experimental part: The substances were administered to rabbits subcutaneously in a dosage of 2 mg/kg. The maximum plasma concentration of (5) was reached after 5 minutes. The maximum plasma concentration of (2) was reached after 80 minutes.

The next data set concerns the target human thrombin (Homo sapiens, UniProt P00734). In words: Determination of the inhibition constants (Ki) for thrombin. The class given is biochemical. The note with it: human thrombin 100 pM, substrate S2238, pH 7.8, 37 degrees C., 60 min preincubation. As for the experimental part:
as §1
The inhibition constants (Ki) for the substances were determined by known enzyme kinetic methods. The human thrombin employed was determined to be 87% pure by means of active site titration. […] The inhibitor and enzyme were preincubated for 60 minutes, and the reaction was started by addition of the chromogenic substrate S2238. The kinetics were analyzed using the mathematical algorithm for tight binding, which with the aid of non-linear regression yielded Ki values (table) and the type of inhibition.

Take `COc1cc(C)c(S(=O)(=O)N[C@@H](CC(=O)O)C(=O)N[C@H](Cc2ccc(C(=N)N)cc2)C(=O)N2CCCCC2)c(C)c1C` [(5)]: the Ki on trypsin worked out at 312 nM; on human thrombin, 2.5 nM. Also, the half-life in data set [1] was 19 min. In addition, the Tmax in data set [2] (rabbit, plasma, sc, read-out: time to maximum plasma concentration (converted)) was 5 min. Moreover, the “duration of effective plasma level” value in data set [2] (s.c.) was 3 h.

These data come from patent US5571844A, “Amidinophenylalanine derivatives, a process for their preparation, their use and compositions containing these as anticoagulants” (Behringwerke Aktiengesellschaft, priority 1993, dated 1996).
